Experimental data taken from ChEMBL document CHEMBL4400569, “The discovery of quinoline-3-carboxamides as hematopoietic prostaglandin D synthase (H-PGDS) inhibitors” (Bioorg Med Chem, 2019).
Converted amounts (≈) assume the structure as drawn. Values belong to the compound of their own block, whether it stands above or below them.

Assays:
[1] = Stability in human whole blood assessed as amidase-mediated carboxylic acid formation by measuring parent compound remaining measured after 1 hr; type: ADME, tissue-based
[2] = species on record: Mus musculus; experiment: animal or person; details: C57BL/6J, po
[3] = Terminal half life in mouse; type: ADME, organism-based; details: in vivo
[4] = Dose normalized AUC in po dosed mouse; type: ADME, organism-based; details: in vivo
[5] = Apparent permeability of the compound at 2.5 uL at pH 7.4 incubated for 3 hrs under shaking condition by PAMPA; type: ADME
[6] = Half life in mouse liver microsomes at 0.5 mM preincubated for 5 mins followed by NADP addition and measured after LC-MS/MS analysis; type: ADME, Microsome
[7] = Solubility of the compound in FaSSIF by HPLC analysis; type: physicochemical
[8] = Oral bioavailability in mouse; type: ADME, organism-based; details: in vivo
[9] = Volume of distribution at steady state in mouse; type: ADME, organism-based; details: in vivo, read-out: Vdss
[10] = Clearance in iv dosed mouse; type: ADME, organism-based; details: in vivo

- half-life [6]: 0.633 h
Compound: COc1ccc2cc(C(=O)N[C@H]3CC[C@H](C(C)(C)O)CC3)cnc2c1

- Stability [1]: 1%
Compound: COc1ccc2cc(C(=O)NC(C)(C)C)cnc2c1

Second part, the compound before the results:

Compound: COc1ccc2cc(C(=O)Nc3cc[nH]n3)cnc2c1
- Stability [1]: 93%

Compound: CC(C)(O)[C@H]1CC[C@H](NC(=O)c2cnc3cc(OC(F)F)ccc3c2)CC1
- ED50 [2]: 0.032 mg/kg
- beta t1/2 [3]: 3.8 h
- AUC/dose [4]: 1800 ng·h/mL per mg/kg
- Papp at 3 h [5]: 24 ×10⁻⁶ cm/s
- half-life [6]: > 3 h

Compound: CC(C)(O)[C@H]1CC[C@H](NC(=O)c2cnc3cc(OC(F)(F)F)ccc3c2)CC1
- solubility [7]: 16 µg/mL (≈ 40.4 µM)
- bioavailability [8]: 46%
- half-life [3]: 7.9 h
- AUC/dose [4]: 1900 ng·h/mL per mg/kg
- Papp at 3 h [5]: 47 ×10⁻⁶ cm/s
- Vd [9]: 2.5 L/kg
- clearance [10]: 3.8 mL/min/kg
- half-life [6]: > 3 h

Compound: COc1ccc2cc(C(=O)N[C@H]3CCNC3=O)cnc2c1
- Stability [1]: 100%

Compound: COc1ccc2cc(C(=O)Nc3cn[nH]c3)cnc2c1
- Stability [1]: 63%
